{"source": "patent US20070293568A1", "about": "“Neurocyte Protective Agent” (priority 2006, published 2007)", "key": {"[1]": {"test_system": "TH positive cell specific MnSOD-deficient mice (KO mice)", "test": "Body weight change of KO mice given YAX in the diet", "type": "in vivo", "conditions": "overall conclusion from body weight, life span and behavior in TH positive cell specific MnSOD-deficient mice", "from_the_text": "As genetically modified mice serving as models for neurodegeneration, in which MnSOD has been specifically deficient in dopamine cells of the substantia nigra and noradrenaline cells of the locus ceruleus in the central nervous system, tyrosine hydroxylase (TH) positive cell specific MnSOD-deficient mice were generated based on the method described in WO 2004/014131. Specifically, first, a homozygous MnSOD flox mouse (lox/lox, +/+) was mated with a TH-Cre transgenic mouse controlled by a TH (tyrosine hydroxylase) promoter, so that heterozygous mice (lox/w, Cre/+) having the TH-Cre transgene were generated. Then, the heterozygous mouse and a MnSOD flox mouse were mated to generate the TH positive cell specific MnSOD-deficient mice (lox/lox, Cre/+) of interest.\nThe YAX prepared in Preparation Example 2 was used as the astaxanthin, and this was administered with the diet. […] It should be noted that for comparison, the KO mice in the control group fed with an ordinary diet not containing YAX were monitored in the same manner.\nThe body weight was measured once a week, and a Student's t-test was performed. The life span was analyzed using the Kaplan-Meier method. […] The behavior was analyzed by the footprinting test. […] Specifically, ink is applied to the hind feet of the mice and the mice are allowed to walk, and the width of the footprints left behind is analyzed. […]"}, "[2]": {"test_system": "mice, cerebral ischemia/reperfusion", "conditions": "reperfusing after cerebral ischemia, astaxanthin administered; cited from earlier work"}, "[3]": {"test_system": "lipid peroxide in the blood", "conditions": "cited from earlier work"}}, "data": [{"smiles": "CC1=C(/C=C/C(C)=C/C=C/C(C)=C/C=C/C=C(C)/C=C/C=C(C)/C=C/C2=C(C)C(=O)[C@@H](O)CC2(C)C)C(C)(C)C[C@H](O)C1=O", "note": "[astaxanthin]", "values": [{"measurement": "neurocyte protective activity", "setting": "[1]", "value": "powerful neurocyte protective activity"}, {"measurement": "depression in motor ability", "setting": "[2]", "value": "suppressed"}, {"measurement": "lipid peroxide in the blood", "setting": "[3]", "value": "suppresses"}]}]}
